Some test systems named below: 786-0; A549; EKVX; HCC 2998; HOP-92; Hs-578T; IGROV-1; MOLT-4; NCI-H23; NCI-H460; OVCAR-3; OVCAR-4; OVCAR-8; PC-3; SF-539; SNB-19; SNB-75; SW-620; U-251; UACC-62.
What all share (experiment): NCI anticancer screen, dose series, 48 h

The structures appear in SMILES notation.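 48-hour exposure; five concentrations; linearly interpolated endpoints. GI50: concentration for 50% inhibition of growth.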 The source made the active and inactive calls. No stated cut-off is given here; in the data, active = GI50 up to about 1.1 µM and inactive = higher.

This note sets out measurements from ChEMBL document CHEMBL1201862, “PubChem BioAssay data set” (2004).

For `S=C(Nc1ccc(Cl)cc1)SC1CCCCC1`, the GI50 was 36.6 µM (inactive) in the test with 786-0; 19.2 µM (inactive) in the test with A549; 20.8 µM (inactive) in the test with EKVX; 19.2 µM (inactive) in the test with HCC 2998; 23.5 µM (inactive) in the test on HOP-92; 31.8 µM (inactive) in the test on Hs-578T. The GI50 was 21.2 µM (inactive) in the test with IGROV-1; 29.2 µM (inactive) with MOLT-4; 20.5 µM (inactive) with NCI-H23; 28.4 µM (inactive) with NCI-H460; 21.4 µM (inactive) in the test on OVCAR-3; 33.9 µM (inactive) in the test with OVCAR-4. Further, the GI50 with OVCAR-8 is 31.5 µM (inactive); in the test on PC-3 it was 35.7 µM (inactive); with SF-539 it was 23.1 µM (inactive); in the test on SNB-19, 20.8 µM (inactive); in the test on SNB-75, 25.2 µM (inactive); in the test with SW-620, 32.9 µM (inactive). In addition, the GI50 was 32.4 µM (inactive) in the test with U-251 and 14 µM (inactive) in the test with UACC-62.

With `Nc1nc(N)c(NC(=O)CCCO)c(=O)[nH]1`, the GI50 in the test on 786-0, in the test on A549, in the test with EKVX, in the test with HCC 2998, with HOP-92 and in the test with Hs-578T was > 100 µM (inactive) each time. In addition, the GI50 in the test on IGROV-1, in the test with MOLT-4, in the test with NCI-H23, with NCI-H460, in the test with OVCAR-3 and in the test with OVCAR-4 was > 100 µM (inactive) each time. Besides, the GI50 in the test with OVCAR-8, in the test with PC-3, in the test on SF-539, in the test with SNB-19, in the test with SNB-75 and with SW-620 was > 100 µM (inactive) throughout. The GI50 in the test with U-251 and with UACC-62 was > 100 µM (inactive) each time.

For the molecule `COc1ccccc1C1ON=C(c2ccc([N+](=O)[O-])cc2)N1C12CC3CC(CC(C3)C1)C2` (stereo not given), the GI50 in the test with 786-0 was > 100 µM (inactive); in the test with A549, 94 µM (inactive); in the test on EKVX, > 100 µM (inactive); in the test on HCC 2998 it was > 100 µM (inactive); with HOP-92 it was 29.2 µM (inactive); in the test with Hs-578T, 37.9 µM (inactive). In addition, the GI50 in the test with IGROV-1 was > 100 µM (inactive); with MOLT-4 it was 17.6 µM (inactive); in the test with NCI-H23, > 100 µM (inactive); in the test with NCI-H460 it was 47.9 µM (inactive); with OVCAR-3, > 100 µM (inactive); in the test on OVCAR-4 it was > 100 µM (inactive). Besides, the GI50 with OVCAR-8 was > 100 µM (inactive); in the test on PC-3 it was 33 µM (inactive); with SF-539, > 100 µM (inactive); with SNB-19 it was > 100 µM (inactive); in the test with SNB-75, 42.1 µM (inactive); in the test with SW-620, > 100 µM (inactive). The GI50 in the test on U-251 and in the test on UACC-62 was > 100 µM (inactive) in each case.

In the case of `Cc1cc(O)nc(NN2C(Cl)C(=O)C2c2ccccc2O)n1` (stereo not given), the GI50 was 2.53 µM (inactive) in the test with 786-0; 4.26 µM (inactive) in the test on A549; 3.27 µM (inactive) in the test on EKVX; 2.67 µM (inactive) in the test on HCC 2998; 5.26 µM (inactive) in the test on HOP-92; 26.8 µM (inactive) in the test with Hs-578T. For the same molecule, the GI50 was 3.75 µM (inactive) with IGROV-1; 0.585 µM (active) in the test with MOLT-4; 5.45 µM (inactive) with NCI-H23; 0.726 µM (active) with NCI-H460; 0.33 µM (active) in the test on OVCAR-3; 8.49 µM (inactive) in the test with OVCAR-4. For the same molecule, the GI50 was 2.66 µM (inactive) in the test on OVCAR-8; 1.32 µM (inactive) with PC-3; 4.54 µM (inactive) with SF-539; 5.85 µM (inactive) in the test with SNB-19; 2.54 µM (inactive) with SNB-75; 3.27 µM (inactive) in the test on SW-620. Besides, the GI50 was 2.76 µM (inactive) with U-251 and 1.6 µM (inactive) in the test on UACC-62.

As to `Cc1nn(C(=O)c2ccc(Cl)cc2)c2c1C(/C=C/c1ccccc1)SC(=N)N2` (stereo not given), the GI50 in the test with 786-0, in the test with A549, in the test with EKVX, with HCC 2998, in the test with HOP-92 and in the test with Hs-578T was > 10 µM (inactive) in each case. Moreover, the GI50 in the test on IGROV-1, in the test on MOLT-4, in the test on NCI-H23, in the test with NCI-H460, with OVCAR-3 and with OVCAR-4 was > 10 µM (inactive) each time. The GI50 with OVCAR-8, in the test with PC-3, with SF-539, in the test on SNB-19, in the test with SNB-75 and with SW-620 was > 10 µM (inactive) each time. Moreover, the GI50 in the test with U-251 and in the test on UACC-62 was > 10 µM (inactive) each time.

Take `C/C(=N\N=C(/[SeH])N1CC2CCC(CC2)C1)c1ccccn1`: the GI50 with 786-0 is 0.211 µM (active); in the test with A549, 0.0614 µM (active); in the test with EKVX, 0.0914 µM (active); in the test with HCC 2998, 0.243 µM (active); with HOP-92, 0.169 µM (active); with Hs-578T, 0.198 µM (active). In addition, the GI50 in the test with IGROV-1 is 0.0169 µM (active); in the test on MOLT-4 it was 0.014 µM (active); with NCI-H23, 0.052 µM (active); in the test with NCI-H460, 0.0568 µM (active); in the test with OVCAR-3 it was 0.0222 µM (active); with OVCAR-4, 0.03 µM (active). For the same molecule, the GI50 in the test on OVCAR-8 is 0.0137 µM (active); with PC-3, 0.0647 µM (active); with SF-539, 0.251 µM (active); in the test with SNB-19, 0.2 µM (active); with SNB-75, 0.0871 µM (active); with SW-620, 0.0139 µM (active). Moreover, the GI50 in the test on U-251 is 0.091 µM (active); with UACC-62, 0.0596 µM (active).

`CN1CCN(c2nc3ccccc3nc2C(=O)c2ccc(Cl)cc2)CC1`: the GI50 in the test with 786-0 was 33.1 µM (inactive); in the test with A549 it was 54.2 µM (inactive); in the test on EKVX, 86.3 µM (inactive); in the test with HCC 2998, 33.7 µM (inactive); with HOP-92, 26.5 µM (inactive); in the test with Hs-578T it was 56.2 µM (inactive). In addition, the GI50 in the test with IGROV-1 is 83.6 µM (inactive); with MOLT-4 it was 65 µM (inactive); in the test with NCI-H23, 49.4 µM (inactive); in the test with NCI-H460, 27.1 µM (inactive); in the test on OVCAR-3, 44 µM (inactive); in the test with OVCAR-4 it was 58.6 µM (inactive). Also, the GI50 was 69 µM (inactive) with OVCAR-8; 51.2 µM (inactive) in the test with PC-3; 69.2 µM (inactive) with SF-539; > 100 µM (inactive) in the test on SNB-19; > 100 µM (inactive) in the test with SNB-75; 61 µM (inactive) with SW-620. Also, the GI50 is 57.1 µM (inactive) in the test on U-251 and 28.5 µM (inactive) in the test with UACC-62.
